# Where a name gives a salt, the structure may show the parent alone.
# How the values were obtained:
# [1] = test system: isolated guinea pig intestine (acetylcholine); experiment: spasmolytic action against acetylcholine on the isolated guinea pig intestine; parameters: key to Spasmolytic action against Acetylcholine (ED50): (--): reduction of 10%; --: reduction of 25%; ----: reduction of 50%; .phi.: substantially no action; conditions: acetylcholine 10^-7 g/ml; for IC50: Cavia porcellus, read-out: Spasmolytic action against Acetylcholine (ED50)
# Experimental: (§1) The compounds according to the invention were also tested for their influence on coronary through-flow on the heart mechanogram and for their spasmolytic action.
# (§2) The latter test was performed on the isolated guinea pig intestine by the method of R. Magnus ("Pflugers Archiv" Vol 102 (1904) p 123).
# [2] = test system: isolated guinea pig intestine (histamine); experiment: spasmolytic action against histamine on the isolated guinea pig intestine; parameters: key to Spasmolytic action against Histamine (ED50): (--): reduction of 10%; --: reduction of 25%; ----: reduction of 50%; .phi.: substantially no action; conditions: histamine 10^-7 g/ml; for IC50: Cavia porcellus, read-out: Spasmolytic action against Histamine (ED50)
# Experimental: as §1, §2
# [3] = test system: isolated guinea pig intestine (BaCl2); experiment: spasmolytic action against barium chloride on the isolated guinea pig intestine; parameters: key to Spasmolytic action against BaCl2 (ED50): (--): reduction of 10%; --: reduction of 25%; ----: reduction of 50%; .phi.: substantially no action; conditions: barium chloride 10^-4 mg/ml; for IC50: Cavia porcellus, read-out: Spasmolytic action against BaCl2 (ED50)
# Experimental: as §1, §2
# reserpine ptosis = experiment: reserpine antagonism (reserpine ptosis test); type: in vivo; conditions: for change in vivo at 25 mg/kg: po, 1 hr after 25 mg/kg of substance orally, read-out: % Influence on reserpine ptosis
# Experimental: The therapeutic activity of compounds according to the invention was determined by measurement of reserpine antagonism (B. Rubin et al., "J. Pharmacol. exp. Therap." Vol 120 (1957) p 125) and by the effect on the fighting behaviour of fighting mice in the test arrangement of G. Y. Yen et al., (Arch. Int. Pharmacodyn, Vol 123 (1959) p 179).
# acute toxicity (LD50) = conditions: in vivo
# coronary vessels = experiment: influence on coronary through-flow
# Experimental: as §1
# heart = experiment: influence on the heart mechanogram (heart muscle force); parameters: key to Action on the heart mechanogram: (--): reduction of 10%; --: reduction of 25%; ----: reduction of 50%; .phi.: substantially no action
# Experimental: The compounds according to the invention were also tested for their influence on coronary through-flow on the heart mechanogram and for their spasmolytic action. […]
# filaria = conditions: in vivo; cited from earlier work
# dictyocaulus = conditions: in vivo; cited from earlier work
smiles,measurement,setting,value
"CC1=C(C(=O)N2CCN(Cc3ccccc3)CC2)CCCO1 [Compound 24, N-benzyl-[6-methyl-2,3-dihydropyran-5-carboxylic acid]piperazide]",Spasmolytic action against Acetylcholine (ED50),[1],.phi.
same,Spasmolytic action against Histamine (ED50),[2],.phi.
same,Spasmolytic action against BaCl2 (ED50),[3],.phi.
"O=C(C1Cc2ccccc2O1)N1CCN(Cc2ccccc2)CC1 (stereo not shown) [Compound 20, N-benzyl-2,3-dihydrocoumarillic acid piperazide]",change in vivo at 25 mg/kg,reserpine ptosis,-32%
same,LD50,"acute toxicity (LD50); ip, i.p. mouse",100 to 150 mg/kg
same,Coronary through-flow: Change (initial or only value),coronary vessels; dose 10 (82 g),+25%
same,Coronary through-flow: Change (initial or only value),coronary vessels; dose 50 (82 g),+50%
same,IC50,[1],3 µg/mL
same,IC50,[2],1 µg/mL
same,IC50,[3],0.3 µg/mL
"O=C(c1cc2ccccc2o1)N1CCN(Cc2ccc(Cl)c(Cl)c2)CC1 [Compound 3, N-(3,4-dichlorobenzyl)-coumarillic acid piperazide]",change in vivo at 25 mg/kg,reserpine ptosis,-22%
same,LD50,"acute toxicity (LD50); ip, i.p. mouse",1000 to 1500 mg/kg
"O=C(c1ccco1)N1CCN(Cc2ccccc2)CC1 [Compound 21, N-benzyl-furan-2-carboxylic acid piperazide]",Spasmolytic action against Acetylcholine (ED50),[1],.phi.
same,IC50,[2],0.1 µg/mL
same,Spasmolytic action against BaCl2 (ED50),[3],.phi.
"CC1=C(C(=O)N2CCN(Cc3ccc(Cl)c(Cl)c3)CC2)CCCO1 [Compound 25, N-3,4-dichlorobenzyl-[6-methyl-2,3-dihydropyran-5-carboxylic acid]-piperazide]",Coronary through-flow: Duration (initial or only value),coronary vessels; dose 6 (82 g),8.0 min
same,Coronary through-flow: Change (initial or only value),coronary vessels; dose 30 (82 g),+31%
same,Coronary through-flow: Duration (initial or only value),coronary vessels; dose 30 (82 g),27.0 min
same,Action on the heart mechanogram,heart; dose 6 (82 g),(--) (reduction of 10%)
same,reduction of the heart muscle force,heart; dose of 30 μg,less than 25%
same,IC50,[1],1 to 10 µg/mL
same,IC50,[2],1 to 10 µg/mL
same,IC50,[3],> 10 µg/mL
CC1=C(C(=O)N2CCN(Cc3cccs3)CC2)CCCO1 [Compound 28],Spasmolytic action against Acetylcholine (ED50),[1],.phi.
same,Spasmolytic action against Histamine (ED50),[2],.phi.
same,Spasmolytic action against BaCl2 (ED50),[3],.phi.
"O=C(c1cc2ccccc2o1)N1CCN(Cc2cccs2)CC1 [Compound 16, N-thenyl-coumarillic acid piperazide]",change in vivo at 25 mg/kg,reserpine ptosis,-54%
same,LD50,"acute toxicity (LD50); ip, i.p. mouse",100 to 250 mg/kg
same,LD50,"acute toxicity (LD50); po, orally, mouse",1980 mg/kg
same,Spasmolytic action against Acetylcholine (ED50),[1],.phi.
same,Spasmolytic action against Histamine (ED50),[2],.phi.
same,Spasmolytic action against BaCl2 (ED50),[3],.phi.
"O=C(c1cc2ccccc2o1)N1CCCN(Cc2ccccc2)CC1 [Compound 17, N-benzyl-coumarillic acid homopiperazide]",Coronary through-flow: Change (initial or only value),coronary vessels; dose 10 (82 g),+8%
same,Coronary through-flow: Duration (initial or only value),coronary vessels; dose 10 (82 g),1.0 min
same,Coronary through-flow: Change (initial or only value),coronary vessels; dose 30 (82 g),+25%
same,Coronary through-flow: Duration (initial or only value),coronary vessels; dose 30 (82 g),1.0 min
same,Action on the heart mechanogram,heart; dose 10 (82 g),.phi.
same,Action on the heart mechanogram,heart; dose 30 (82 g),.phi.
"O=C(c1ccco1)N1CCN(Cc2ccc(Cl)c(Cl)c2)CC1 [Compound 22, N-3,4-dichlorobenzyl-furan-2-carboxylic acid piperazide]",change in vivo at 25 mg/kg,reserpine ptosis,-23%
same,LD50,"acute toxicity (LD50); ip, i.p. mouse",250 to 500 mg/kg
"CC1=C(C(=O)N2CCN(Cc3c(C)cc(C)cc3C)CC2)CCCO1 [Compound 26, N-(2,4,6-Trimethylbenzyl)-N-2-methyl-5,6-dihydro-pyran-3-carbonyl-piperazine-hydrochloride]",Coronary through-flow: Change (initial or only value),coronary vessels; dose 30 (82 g),+13%
same,Coronary through-flow: Duration (initial or only value),coronary vessels; dose 30 (82 g),5 min
same,Coronary through-flow: Change (initial or only value),coronary vessels; dose 100 (82 g),+21%
same,Coronary through-flow: Duration (initial or only value),coronary vessels; dose 100 (82 g),> 12 min
"CC1OCCCC1C(=O)N1CCN(Cc2ccccc2)CC1 (stereo not shown) [Compound 29, N-benzyl-[6-methyl-tetrahydropyran-5-carboxylic acid]-piperazide]",IC50,[1],> 10 µg/mL
same,IC50,[2],> 10 µg/mL
same,IC50,[3],> 10 µg/mL
O=C(c1cccs1)N1CCN(Cc2cccs2)CC1 [Compound 42],change in vivo at 25 mg/kg,reserpine ptosis,-49%
same,LD50,"acute toxicity (LD50); ip, i.p. mouse",100 to 250 mg/kg
"CN(C)CCCN1c2ccccc2CCc2ccccc21 [Imipramine, 5-(3'-dimethylaminopropyl)-10-11-dihydro-5-H-dibenz-[b,f]-azepine hydrochloride, reference compound]",activity in reserpine test (in words),reserpine ptosis; in vivo,high activity
same,change in vivo at 25 mg/kg,reserpine ptosis,-76%
same,action on coronary flow / coronary vessels (in words),coronary vessels,"initially a brief rise in coronary flow but this changes into a long contraction, and thus damages the heart"
same,Coronary through-flow: Change (initial or only value),coronary vessels; dose 10 (82 g),+19%
same,"Coronary through-flow: Change (second value, subsequent contraction)",coronary vessels; dose 10 (82 g),-18%
same,Coronary through-flow: Duration (initial or only value),coronary vessels; dose 10 (82 g),0.5 min
same,"Coronary through-flow: Duration (second value, subsequent contraction)",coronary vessels; dose 10 (82 g),21 min
same,Coronary through-flow: Change (initial or only value),coronary vessels; dose 20 (82 g),+28%
same,"Coronary through-flow: Change (second value, subsequent contraction)",coronary vessels; dose 20 (82 g),-29%
same,Coronary through-flow: Duration (initial or only value),coronary vessels; dose 20 (82 g),0.6 min
same,"Coronary through-flow: Duration (second value, subsequent contraction)",coronary vessels; dose 20 (82 g),26 min
same,Coronary through-flow: Change (initial or only value),coronary vessels; dose 30 (82 g),+84%
same,"Coronary through-flow: Change (second value, subsequent contraction)",coronary vessels; dose 30 (82 g),-22%
same,"Coronary through-flow: Duration (second value, subsequent contraction)",coronary vessels; dose 30 (82 g),> 10 min
same,Action on the heart mechanogram,heart; dose 10 (82 g),-- (reduction of 25%)
same,Action on the heart mechanogram,heart; dose 20 (82 g),-- (reduction of 25%)
same,Action on the heart mechanogram,heart; dose 30 (82 g),---- (reduction of 50%)
same,reduction of the heart muscle force,heart; dose of 10 μg,25%
same,reduction of the heart muscle force,heart; dose of 20 μg,25%
same,reduction of the heart muscle force,heart; dose of 30 μg,50%
same,IC50,[1],0.01 to 0.1 µg/mL
same,IC50,[2],0.001 µg/mL
same,IC50,[3],0.1 to 1 µg/mL
"O=C(c1cc2ccccc2[nH]1)N1CCN(Cc2ccccc2)CC1 [Compound 30, N-Benzyl-indole-2-carboxylic acid piperazide]",Coronary through-flow: Change (initial or only value),coronary vessels; dose 10 (82 g),+90%
same,Coronary through-flow: Duration (initial or only value),coronary vessels; dose 10 (82 g),12 min
CCN(CC)C(=O)N1CCN(C)CC1 [4-methylpiperazinocarboxylic acid-(1)-diethylamide citrate],use against filaria infections,filaria,successfully used against filaria
same,use against dictyocaulus infections,dictyocaulus,successfully used
"O=C(c1cc2ccccc2o1)N1CCN(Cc2ccc(Cl)cc2)CC1 [Compound 2, N-(4-chloro)-benzyl-coumarillic acid piperazide]",Spasmolytic action against Acetylcholine (ED50),[1],>
same,IC50,[2],1 to 10 µg/mL
same,IC50,[3],1 to 10 µg/mL
"O=C(c1cc2ccccc2o1)N1CCN(Cc2ccc(F)cc2)CC1 [Compound 5, N-(4-fluorobenzyl)-coumarillic acid piperazide]",change in vivo at 25 mg/kg,reserpine ptosis,-50%
same,LD50,"acute toxicity (LD50); ip, i.p. mouse",100 to 250 mg/kg
"O=C(c1cc2ccccc2o1)N1CCN(Cc2ccccc2)CC1 [Compound 1, N-Benzyl-coumarillic acid piperazide]",change in vivo at 25 mg/kg,reserpine ptosis,-50%
same,LD50,"acute toxicity (LD50); ip, i.p. mouse",320 mg/kg
same,LD50,"acute toxicity (LD50); po, orally, mouse",2050 mg/kg
same,action on coronary flow / coronary vessels (in words),coronary vessels,considerable increase in the coronary through-flow without subsequent contraction of the vessel
same,Coronary through-flow: Duration (initial or only value),coronary vessels; dose 10 (82 g),0.5 min
same,Coronary through-flow: Change (initial or only value),coronary vessels; dose 30 (82 g),+38%
same,Coronary through-flow: Duration (initial or only value),coronary vessels; dose 30 (82 g),1.0 min
same,Coronary through-flow: Change (initial or only value),coronary vessels; dose 100 (82 g),+120%
same,Coronary through-flow: Duration (initial or only value),coronary vessels; dose 100 (82 g),26.0 min
same,Action on the heart mechanogram,heart; dose 10 (82 g),.phi.
same,Action on the heart mechanogram,heart; dose 30 (82 g),.phi.
same,Action on the heart mechanogram,heart; dose 100 (82 g),-- (reduction of 25%)
same,reduction of the heart muscle force,heart; dose of 100 μg,25%
same,IC50,[1],10 µg/mL
same,IC50,[2],1 to 10 µg/mL
same,IC50,[3],1 to 10 µg/mL

# Source: patent publication US4115569A, “Cyclic diamine derivatives” (Hoechst Aktiengesellschaft, priority 1971, dated 1978)
